# Experimental data published in patent publication US20020137030A1, “METHOD OF DETECTION OF NEOPLASTIC CELLS” (JOHN HOPKINS UNIVERSITY SCHOOL OF MEDICINE, priority 1995, published 2002).
# Entries after “also recorded” stand apart in the source; their conditions may differ.
# Tests used:
# Assay type in all cases: cell-based, human
# 5′ CpG island of p16 = assay: Southern blot of 5′ CpG island methylation of p16 after 5-deoxyazacytidine
# Experimental: Southern blots were performed as described (de Bustros, et al., Proc. Natl. Acad. Sci. U.S.A., 85:5693-5697, 1988). Briefly, […] of genomic DNA were digested with of EcoRI (10 U/mg) alone or in combination with the methylation-sensitive enzymes SmaI, EagI or SacII (15 U/mg each) for 16 h as specified by the manufacturers (Gibco-BRL and New England Biolabs), run on a 1% agarose gel, transferred to a Zeta-Probe GT nylon membrane (Bio-Rad), and probed with 25 ng of the 0.35 kb and 0.5 kb PCR products of exons 1 and 2 of p16 after random primer labelling (Feinberg, A. P. & Vogelstein, B. A, Annal. Biochem. 137:266-267, 1984). The primer sequences for the PE1 probe are as follows: sense 5′ GAAGAAAGAGGAGGGGCTG (SEQ ID NO:20), and antisense 5′ […] (SEQ ID NO:21), amplified with an annealing temperature of 60° C. by adding 3.6% formamide to the PCR buffer. The c-abl probe was provided by J.-P. Issa. The blots were then exposed in a phosphorimager (MolecularDynamics). All cases with a partial methylation pattern were repeated to exclude imcomplete enzymatic activity.
# (§1) Cells were grown in RPMI 1640 with 5-10% fetal calf serum depending on the growth requirements of each line. To assess re-expression, 5-deoxyazacytidine was supplemented to the medium at concentrations of […], and cells were harvested after three and five days.
# (§2) In order to test the hypothesis that 5′ CpG island methylation of p16 indeed blocks gene expression, five methylated cell lines (3 NSCLC and 2 HNSCC) were subjected for 3-5 days to different dosages (0.3-1 mmol) of the demethylating agent 5-deoxyazacytidine.
# p16 [1] = assay: Re-expression of p16 mRNA (RT-PCR) after 5-deoxyazacytidine in colon cancer cell lines RKO and SW480; conditions: 3 days
# Experimental: (§3) Total RNA was extracted from cell lines by the guanidium-isothiocyanate-phenol-chloroform method (Chomczynski, P. & Sacchi, N., Analyt. Biochem, 162:156-159, 1987). Total RNA […] or poly-A (0.5 mg) was reverse transcribed by using Superscript II RNaseH^− (Gibco-BRL) reverse transcriptase (200 units) in the presence of hexamers (Pharmacia) and dNTP (Gibco-BRL). The cDNA was then amplified by PCR using the forward primer for exon 1 and the reverse primer for exons 2 or 3 (Kamb, et al., Science 264:436-440, 1994; and Serrano, et al., Nature 366:704-707, 1993) of p16 yielding a 428 or […] fragment respectively, which was run on 1.5% agarose gel. As a control, the […] fragment of p53 was amplified simultaneously. All reactions were repeated at least once. p16 primer sequence were as follows:
# In the methylation studies, the cDNA was then amplified by PCR using the forward primer for exon 1 and the reverse primer for exons 2 or 3 of CDKN2/p16 yielding a 428 or […] fragment respectively, which was run on 1.5% agarose gel. As a control, the […] fragment of p53 (or β-actin) was amplified simultaneously. All reactions were repeated at least once. […]
# In contrast, normal breast and 3 of 4 tested colon mucosa samples had readily detectable p16 message. […]
# cancer cell lines = assay: Effects on cell growth, morphology and viability of cancer cell lines; conditions: non-specific; also seen in lines with homozygous deletions of p16, independent of methylation status
# Experimental: as §1
# However, these effects were non-specific and observed in cell lines with homozygous deletions of p16, and with retention of p16 alleles independent of methylation status. Therefore, we cannot attribute these non-specific effects to re-expression of p16, since other genes might also be affected by azacytidine.
# p16 [2] = assay: Re-expression of p16 (RT-PCR) after 5-deoxyazacytidine in methylated lung and head and neck cancer cell lines
# Experimental: as §3
# In the methylation studies, the cDNA was then amplified by PCR using the forward primer for exon 1 and the reverse primer for exons 2 or 3 of CDKN2/p16 yielding a 428 or […] fragment respectively, which was run on 1.5% agarose gel. As a control, the […] fragment of p53 (or β-actin) was amplified simultaneously. All reactions were repeated at least once.
# as §1, §2
smiles,measurement,setting,value
Nc1ncn([C@H]2C[C@H](O)[C@@H](CO)O2)c(=O)n1 [5-deoxyazacytidine],"demethylation of p16 5′ CpG island, EcoRI and SmaI Southern (FIG. 5c)",5′ CpG island of p16; line H157,Partial demethylation
same,"demethylation of p16 5′ CpG island, EcoRI and SmaI Southern (FIG. 5c)","5′ CpG island of p16; line H 1752, 1 and 0.5 mmol, 3 days and 5 days, all dosages and time points",demethylation was seen
same,demethylation of the monitored CpG sites,"5′ CpG island of p16; methylated cell lines, associated with reversal of the transcriptional block of p16",partial demethylation
same,p16 mRNA by RT-PCR after treatment,p16 [1],p16 gene mRNA was seen; also recorded: detectable p16 mRNA
same,"effects on cell growth, morphology, and viability",cancer cell lines,profound effects
same,re-expression of p16 message by RT-PCR,"p16 [2]; five methylated cell lines (3 NSCLC and 2 HNSCC), 0.3-1 mmol, 3-5 days, each dose and time tested",re-expressed the message of p16
same,re-expression of p16 (FIG. 5b),p16 [2]; methylated HNSCC cell lines (lanes 4 and 6),re-express p16
same,reexpression of p16 message on reversal of methylation,"p16 [2]; methylated cell lines, summary statement",reexpression of p16 message
same,"re-expression of p16, 428 bp RT-PCR product (FIG. 5d)","p16 [2]; transcriptionally silenced lines U1752 and H157, all doses and times",re-express p16
